According to paper PMC3641821 (2011):

What was measured:
[1] = test system: D1, d[5'-G3G5C5C3-3'] (DNA, duplex) GGGGGGGGCCCCCCCC; assay: ITC; conditions: 100 mM KCl; 10 mM sodium cacodylate, 0.5 mM EDTA, pH 6.8, 25 °C
[2] = test system: D4, d[5'-A3G5C5T3-3'] (DNA, duplex) AAAGGGGGCCCCCTTT; assay: ITC; conditions: 100 mM KCl; 10 mM sodium cacodylate, 0.5 mM EDTA, pH 6.8, 25 °C
[3] = test system: poly(dA.dT)2 (DNA, polymer) AT; assay: UV melting; conditions: K+ 100 or 150 mM; Na+ 10 mM (cacodylate); rbd 10; per base
[4] = test system: D9, d[5'-G3(AT)5C3-3'] (DNA, duplex) GGGATATATATATCCC; assay: ITC; conditions: 100 mM KCl; 10 mM sodium cacodylate, 0.5 mM EDTA, pH 6.8, 25 °C
[5] = test system: D8, d[5'-A2GAG2AGAGA2GAGAG2AGA2-3'] 22-mer duplex (DNA, duplex) AAGAGGAGAGAAGAGAGGAGAA/TTCTCCTCTCTTCTCTCCTCTT; assay: ITC; conditions: 100 mM KCl; 10 mM sodium cacodylate, 0.5 mM EDTA, pH 6.8, 25 °C; site 1 of 2
[6] = test system: D5, d[5'-A12-x-T12-3'] (intramolecular duplex) (DNA, hairpin, x = hexaethylene glycol linker between positions 12 and 13) AAAAAAAAAAAATTTTTTTTTTTT; assay: ITC; conditions: 100 mM KCl; 10 mM sodium cacodylate, 0.5 mM EDTA, pH 6.8, 25 °C; site 1 of 2
[7] = test system: D11, d[5'-(AT)8-3'] (DNA, duplex) ATATATATATATATAT; assay: ITC; conditions: 100 mM KCl; 10 mM sodium cacodylate, 0.5 mM EDTA, pH 6.8, 25 °C
[8] = test system: D3, d[5'-G3A5T5C3-3'] (DNA, duplex) GGGAAAAATTTTTCCC; assay: ITC; conditions: 100 mM KCl; 10 mM sodium cacodylate, 0.5 mM EDTA, pH 6.8, 25 °C; site 1 of 2
[9] = test system: D2, d[5'-G2A6T6C2-3'] (DNA, duplex) GGAAAAAATTTTTTCC; assay: ITC; conditions: 100 mM KCl; 10 mM sodium cacodylate, 0.5 mM EDTA, pH 6.8, 25 °C; site 1 of 2
[10] = test system: D6, d[5'-A30T30-3'] (DNA, duplex) AAAAAAAAAAAAAAAAAAAAAAAAAAAAAATTTTTTTTTTTTTTTTTTTTTTTTTTTTTT; assay: ITC; conditions: 100 mM KCl; 10 mM sodium cacodylate, 0.5 mM EDTA, pH 6.8, 25 °C; site 1 of 2

K1 [1] | K1 [2] | ΔTm [3] | K1 [4] | K1 [5] | K1 [6] | K1 [7] | K1 [8] | K1 [9] | K1 [10] | Structure (SMILES)
3.80 ± 0.18 × 10^5 M^-1 | 2.02 ± 0.20 × 10^5 M^-1 | – | – | – | – | – | – | – | – | NC[C@@H]1O[C@H](O[C@H]2[C@@H](O)[C@H](O[C@@H]3[C@@H](O)[C@H](N)C[C@H](N)[C@H]3O[C@H]3O[C@H](CN)[C@@H](O)[C@H](O)[C@H]3N)O[C@@H]2CO)[C@H](N)[C@@H](O)[C@@H]1O
0.27 ± 0.02 × 10^7 M^-1 | 7.75 ± 1.70 × 10^5 M^-1 | ~ 11 °C | 0.54 ± 0.15 × 10^7 M^-1 | 1.78 ± 1.00 × 10^7 M^-1 | 28.2 ± 12.0 × 10^7 M^-1 | 5.88 ± 2.90 × 10^7 M^-1 | 25.3 ± 10.0 × 10^7 M^-1 | 12.9 ± 3.4 × 10^7 M^-1 | 129.2 ± 54.1 × 10^7 M^-1 | NC[C@@H]1O[C@H](O[C@H]2[C@@H](O)[C@H](O[C@@H]3[C@@H](O)[C@H](N)C[C@H](N)[C@H]3O[C@H]3O[C@H](CN)[C@@H](O)[C@H](O)[C@H]3N)O[C@@H]2CSCCNC(=S)NCCOCCOCCNC(=S)NCCSC[C@H]2O[C@@H](O[C@@H]3[C@@H](O)[C@H](N)C[C@H](N)[C@H]3O[C@H]3O[C@H](CN)[C@@H](O)[C@H](O)[C@H]3N)[C@H](O)[C@@H]2O[C@H]2O[C@@H](CN)[C@@H](O)[C@H](O)[C@H]2N)[C@H](N)[C@@H](O)[C@@H]1O
